The source of these data is US11632963B2, “Tuber storage” (Arysta Lifescience Benelux Sprl, priority 2014, dated 2023).

For experiment [1], the system named is potatoes. As to conditions: WO 92/10934, cited from earlier work.
Experiment [2] deals with Potatoes from the variety Bintje, Innovator and Nicola. Nature of the experiment: Fresh sprout weight of stored potatoes treated by fogging (Example 7). It counts as in vivo, Solanum tuberosum. As to conditions: Treatment at 50 ml/ton, corresponding to 450 g limonene/ton or 450 ppm. As to the method: Potatoes were treated with 100% orange oil every 3 weeks via application by cold fogging using a potato mist blower VEUGEN in the above part of a storage cell between bag fillings and the top of the cell.
Potatoes from the variety Bintje, Innovator and Nicola were stored in a storage room and each storage room (trail number) was treated with a different product in the anti-sprouting treatment. BIO-024 stands for Orange oil, with at least 900 g limonene/1, BIOX M is a trade name of a mint oil based product that is commercially available as an anti-sprouting agent, Gro Stop fog is a trade name of a CIPC containing product for the treatment of sprouting of potatoes.
An overview of the fresh sprout weight and the weight loss of samples that were taken on 11 February, 11 March, 8 April and 6 May is given in Table 6. […] Storage was carried out from 11 October until 16 May the year after, all products were applied by fogging.
Fresh sprout weight was assessed by weighing all sprouts per sample. Sprout weight was calculated for a standard sized sample of 1.0 kg potatoes: Fresh sprout weight(g)=fresh sprout weight sample/(weight sample unloading−sprouts)

Experiment [3] has as its system potatoes. As to conditions: 45 g/ton at start and 15 g/ton every 20 days, after 5 months, WO 00/32063, cited from earlier work.
Experiment [4] deals with potatoes (Bintje and Innovator). The experiment is described as follows: Tuber treatment in cabins, sprout formation (Example 2). It counts as in vivo, Solanum tuberosum. The following applies: 600 EC limonene composition, 90 ml/1000 kg then 30 or 90 ml/1000 kg every 3 weeks, fogging. The method, then: In a second example, use of a 600 EC limonene composition according to example 1 the treatment of potatoes is illustrated.
In this example, 10 equal amounts of potatoes (20 kg Bintje and 20 kg Innovator) were treated in 5 different cabins. The first cabin acted as a control. No treating agent was applied in the first cabin.
In cabin 4, a composition according to example 1 was used, with limonene as active ingredient. The first application was done 2 weeks after harvesting at a concentration of 90 ml/1000 kg potatoes. After this application, the next applications were at a dose of 30 ml/1000 kg potatoes.
In cabin 5, the same composition as used in cabin 4 was used with 600 g/l limonene as active ingredient. The first application was done 2 weeks after harvesting at a concentration of 90 ml/1000 kg potatoes. Every 3 weeks the application was repeated at the same dose.
For all the cabins, the first treatment was on 22 October, 2 weeks after harvest. The potatoes were investigated for sprout formation at February 5, the next year, March 4, and April, 4. For each amount of potatoes the weight loss was determined, the sprout index was determined and the sprout weight was measured.
The sprout weight expressed in grams of the “Innovator”-variety potatoes is depicted in FIG. 3 for each cabin and at the 3 different times, corresponding to around 4, 5 and 6 months after harvest.

On to `C=C(C)[C@H]1CC=C(C)CC1` [limonene], for which, in the experiment on potatoes [1] (headspace concentration of 1.70 mg/L after 7 days), the “influence on potato sprouting” value is reported as “did not have an influence on potato sprouting”. In the experiment on potatoes [1] (three unsprouted potatoes exposed to a 2 ml limonene soaked filter paper in a desiccator flask), the eyes with sprouts is given as 0%. Further, the “effectiveness to reach the levels of control obtainable by CIPC or mint oil” value in experiment [2] is on record as “not sufficiently effective”. Besides, the weight loss in the experiment on potatoes [3] (60 wt % limonene composition, untreated control 5.4%) is reported as 4.5%. In addition, the sprout growth in the experiment with potatoes [3] (limonene as 60 wt % composition, untreated control 100%) is listed as 96.8%. In addition, the “effectiveness as treatment agent on its own (sprout formation)” value in experiment [4] was “sufficient effectiveness”.
